Experimental data published in the supplement of paper PMC10307832.

Assays:
Assay in all cases: relative viability (nuclei count vs DMSO), 5 days (fraction); higher = more cells survive
[1] = compound: Cn1cc(-c2cnn3c(N)c(Br)c([C@@H]4CCCNC4)nc23)cn1 + COc1cccc2cc(-c3nc([C@H]4CC[C@H](C(=O)O)CC4)n4ncnc(N)c34)[nH]c12 [OSI-027] (partner 0.5 µM)
Procedure, shortened: (§1)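 Lung cancer cell lines in 1536-well plates were dosed by pin tool the day after seeding, either with one drug alone or with a fixed anchor-drug dose plus five library-drug doses (not always all listed) in √10 steps. After 5 days, cells were fixed and their nuclei stained in one step (final 0.05% Triton X-100, 1% formaldehyde, 1 ug/ml Hoechst), then counted on 4× images. Relative viability is the nuclei count in treated wells divided by that in vehicle wells. Values are medians of duplicate plates.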

[2] = compound: Cn1cc(-c2cnn3c(N)c(Br)c([C@@H]4CCCNC4)nc23)cn1 + C[C@@H](Oc1cc(-c2cnn(C3CCNCC3)c2)cnc1N)c1c(Cl)ccc(F)c1Cl [Crizotinib] (partner 1 µM)
Procedure, shortened: as §1

[3] = compound: Cn1cc(-c2cnn3c(N)c(Br)c([C@@H]4CCCNC4)nc23)cn1 + C[C@]1(O)C[C@@H](c2nc(-c3ccc4ccc(-c5ccccc5)nc4c3)c3c(N)nccn32)C1 [Linsitinib] (partner 1 µM)
Procedure, shortened: as §1

[4] = compound: Cn1cc(-c2cnn3c(N)c(Br)c([C@@H]4CCCNC4)nc23)cn1 + Cc1cc(Nc2cc(N3CCN(C)CC3)nc(Sc3ccc(NC(=O)C4CC4)cc3)n2)n[nH]1 [Tozasertib] (partner 0.1 µM)
Procedure, shortened: as §1

| Cell Line | relative viability ([1]; first compound 0.1581 µM) | relative viability ([1]; first compound 0.5 µM) | relative viability ([1]; first compound 1.581 µM) | relative viability ([1]; first compound 5 µM) | relative viability ([2]; first compound 0.05 µM) | relative viability ([2]; first compound 0.1581 µM) | relative viability ([2]; first compound 0.5 µM) | relative viability ([2]; first compound 1.581 µM) | relative viability ([2]; first compound 5 µM) | relative viability ([3]; first compound 0.05 µM) | relative viability ([3]; first compound 0.1581 µM) | relative viability ([3]; first compound 0.5 µM) | relative viability ([3]; first compound 1.581 µM) | relative viability ([3]; first compound 5 µM) | relative viability ([4]; first compound 0.1581 µM) | relative viability ([4]; first compound 0.5 µM) | relative viability ([4]; first compound 1.581 µM) | relative viability ([4]; first compound 5 µM) | relative viability ([1]; first compound 0.05 µM) | relative viability ([4]; first compound 0.05 µM) |
| --- | --- | --- | --- | --- | --- | --- | --- | --- | --- | --- | --- | --- | --- | --- | --- | --- | --- | --- | --- | --- |
| HCC-78 | 0.347 | 0.345 | 0.354 | 0.517 | 0.323 | 0.391 | 0.378 | 0.344 | 0.218 | 0.507 | 0.519 | 0.524 | 0.604 | 0.385 | 0.456 | 0.404 | 0.407 | 0.279 |  |  |
| NCI-H2405 | 0.594 | 0.652 | 0.623 | 0.54 | 0.884 | 0.849 | 0.794 | 0.765 | 0.611 | 0.922 | 0.875 | 1.02 | 0.842 | 0.785 | 0.784 | 0.723 | 0.743 | 0.498 | 0.607 | 0.733 |
| SK-LU-1 | 0.279 | 0.237 | 0.248 | 0.183 | 0.877 |  | 0.483 | 0.33 | 0.264 | 1.13 |  | 0.465 | 0.318 | 0.255 | 0.193 | 0.192 | 0.201 | 0.169 | 0.39 | 0.35 |
| EMC-BAC-2 | 0.367 | 0.408 | 0.37 | 0.355 | 0.73 | 0.769 | 0.715 | 0.646 | 0.703 | 0.834 | 0.904 | 0.849 | 0.663 | 0.836 | 0.292 | 0.251 | 0.252 | 0.218 | 0.368 | 0.277 |
| NCI-H596 | 0.87 | 0.643 | 0.654 | 0.719 | 0.943 | 1.01 | 1.05 | 0.906 | 0.953 | 1.07 | 1.11 | 1.01 | 0.986 | 1.16 | 1.08 | 0.719 | 0.857 | 0.562 | 0.833 | 1.02 |
| LCLC-97TM1 | 0.558 | 0.545 | 0.391 | 0.487 | 0.34 | 0.658 | 0.581 | 0.483 | 0.228 | 0.194 | 0.2 | 0.184 | 0.21 | 0.176 | 0.286 | 0.188 | 0.269 | 0.194 | 0.459 | 0.202 |
| H3255 | 0.523 | 0.601 | 0.584 | 0.481 | 0.799 | 0.852 | 0.942 | 0.729 | 0.5 | 0.989 | 1.05 | 0.929 | 0.769 | 0.684 | 0.569 | 0.727 | 0.224 | 0.447 | 0.744 | 0.614 |
| LXF-289 | 0.896 | 0.82 | 0.82 | 0.766 | 0.82 | 0.929 | 0.945 | 0.81 | 0.807 | 0.976 | 1.07 | 1.07 | 0.903 | 1.04 | 0.219 | 0.189 | 0.168 | 0.162 | 0.853 | 0.209 |
| UMC-11 | 0.427 | 0.438 | 0.267 | 0.279 | 0.736 | 0.504 | 0.623 | 0.392 | 0.262 | 1.18 | 1.08 | 0.991 | 0.818 | 0.507 | 0.204 | 0.217 | 0.205 | 0.187 | 0.495 | 0.276 |
| LC-2-ad | 0.879 | 0.905 | 0.884 | 0.736 | 0.503 | 0.439 | 0.419 | 0.447 | 0.426 | 0.907 | 0.891 | 0.821 | 0.884 | 0.86 | 0.382 | 0.442 | 0.464 | 0.355 | 0.806 | 0.39 |
| SK-MES-1 | 0.562 | 0.416 | 0.244 | 0.16 | 1.07 | 1.11 | 0.918 | 0.934 | 0.366 | 1.05 | 1.1 | 1.04 | 0.971 | 0.289 | 0.675 | 0.57 | 0.268 | 0.137 | 0.621 | 0.987 |
| A-427 | 0.474 | 0.453 | 0.357 | 0.31 | 0.938 | 1.02 | 0.922 | 0.725 | 0.566 | 1.12 | 1.15 | 1.06 | 1.06 | 1 | 0.246 | 0.206 | 0.192 | 0.154 | 0.495 | 0.185 |
| NCI-H322M | 0.356 | 0.466 | 0.354 | 0.242 | 0.874 | 0.962 | 0.884 | 0.785 | 0.576 | 0.86 | 0.943 | 0.889 | 0.864 | 0.828 | 0.315 | 0.406 | 0.359 | 0.294 | 0.46 | 0.468 |
| HCC-366 | 1.19 | 0.945 | 0.959 | 0.952 | 0.53 | 0.737 | 0.474 | 0.405 | 0.209 | 0.71 | 0.739 | 0.483 | 0.521 | 0.18 | 0.703 | 0.169 | 0.0808 | 0.0856 | 1.03 | 0.144 |
| NCI-H1975 | 0.72 | 0.706 | 0.554 | 0.654 | 1.01 | 1.05 | 0.781 | 0.764 | 0.714 | 1.08 | 0.918 | 0.842 | 0.79 | 0.805 | 0.757 | 0.63 | 0.532 | 0.51 | 0.895 | 0.868 |
| NCI-H1437 | 1.11 | 0.954 | 0.803 | 0.733 | 1.09 | 1.05 | 0.967 | 0.693 | 0.849 | 1.17 | 1.16 | 0.954 | 0.604 | 0.821 | 0.46 | 0.402 | 0.361 | 0.381 | 0.826 | 0.414 |
